# Measured values: patent US12091718B2, “Genetically encoded biosensors for detection of polyketides” (priority 2016, dated 2024)
# Experiments:
# [1] = biological target: wild-type MphR (MphR(A), macrolide biosensor transcription factor), SEQ ID NO: 2 (gene SEQ ID NO: 1, 28) (Escherichia coli, UniProt Q9EVJ6); test: cell-based; conditions: for activation of GFP expression under control of WT MphR: result in words
# From the text: (§1) The sensitivity of biosensors often requires tailoring to meet specific needs. […] A library of MphR gene mutations and variants was created by error-prone PCR (epPCR).
# Molecular Biosystems. […] Previous literature reports various induction ranges for MphR-based biosensors depending on the plasmid construct.
# Three and five site saturation mutagenesis libraries of the MphR gene that targeted residues of the ligand binding domain were generated using the Quikchange Multi Site-Directed mutagenesis kit (Agilent) and designated QCMS3 and QCMS5, respectively. A third library was generated via error-prone PCR (epPCR) with an average of two amino acid mutations per library clone. Libraries were transformed into E. coli TOP10 cells with plasmid pJZ12 (See FIG. 16 and sequence below) containing genes MphA and mrx and subjected to an initial round of negative sorting in the absence of added ligand via Fluorescence Activated Cell Sorting (FACS) to eliminate variants that are constitutively expressing GFP.
# In Table 1, Hill functions were used to derive biosensor transfer functions. K1/2 is the inducer concentration at half maximal induction. Cooperativity is derived from the Hill function to indicate cooperative ligand binding between protein monomers of the MphR dimer. […] The linear range of detection is the linear portion of the dose-response curve with a slope R^2=0.95 or higher.
# [2] = biological target: MphR variant S106F (pikB1, D3; SEQ ID NO: 10, 38) (Escherichia coli, UniProt Q9EVJ6, S106F); test: cell-based; assay type: cell-based; conditions: for times more sensitive vs. WT: Table 11
# From the text: as §1
# To test this, the aglycone 6-deoxyerythronolide B (6dEB) was produced via an engineered E. coli strain and purified by flash chromatography. […] To extend this to other systems, the ability of MphR was examined to detect macrolide antibiotics from S. venezuelae.
# The ability of the MphR clone “PikB1” to detect a Solithromycin biosynthetic intermediate (see structure below) was determined.
# [3] = biological target: T1, MphR variant A16T/T154M/M155K (M2D6; SEQ ID NO: 16, 44) (Escherichia coli, UniProt Q9EVJ6, A16T/M155K/T154M); test: MphR-GFP biosensor dose-response, M2D6; assay type: cell-based; conditions: result in words
# T1 construct: GFP under PmphR as reporter
# From the text: In many cases, it is necessary to determine the presence and concentration of a given polyketide in the presence of other structurally related molecules. Accordingly, the selectivity of MphR requires tailoring towards target molecules.
# [4] = biological target: T2, MphR variant A16T/T154M/M155K with E7 RBS mutation (M2D6-E7RBS) (Escherichia coli, UniProt Q9EVJ6, A16T/M155K/T154M); test: MphR-GFP biosensor dose-response, M2D6-E7RBS; assay type: cell-based
# T2 construct: E. coli GFP biosensor
# MphR variant R122T = MphR variant R122T (Escherichia coli, UniProt Q9EVJ6, R122T); test: MphR-GFP biosensor dose-response, R122T; assay type: cell-based; conditions: for Hill coefficient: Table 8
# [5] = biological target: T3, MphR variant G76C (clone A3/epA3; nt A1G in RBS, aa G76C; SEQ ID NO: 3, 29) (Escherichia coli, UniProt Q9EVJ6, G76C); test: MphR-GFP biosensor dose-response, clone G76C (A3); assay type: cell-based; conditions: Table 1
# T3 construct: pMLGFP-derived plasmid, E. coli TOP10 GFP biosensor
# From the text: (§2) K1/2 is the inducer concentration at half maximal induction. Cooperativity is derived from the Hill function to indicate cooperative ligand binding between protein monomers of the MphR dimer. Dynamic range is the GFP maximal response minus the minimum GFP response, which in all cases was the response with no ligand. The linear range of detection is the linear portion of the dose-response curve with a slope R^2=0.95 or higher.
# [6] = tested on: MphR variant G76C (clone A3/epA3; nt A1G in RBS, aa G76C; SEQ ID NO: 3, 29); test: MphR-GFP biosensor dose-response, clone G76C (A3); assay type: cell-based, Escherichia coli; conditions: Table 11
# From the text: as §2
# [7] = biological target: T4, MphR variant V90I (clone E7/epE7; nt A4T in RBS, aa V90I; SEQ ID NO: 4, 30) (Escherichia coli, UniProt Q9EVJ6, V90I); test: MphR-GFP biosensor dose-response, clone V90I (E7); assay type: cell-based; conditions: Table 1
# T4 construct: E. coli TOP10 with pJZ12
# From the text: as §2
# [8] = tested on: MphR variant V90I (clone E7/epE7; nt A4T in RBS, aa V90I; SEQ ID NO: 4, 30); test: MphR-GFP biosensor dose-response, clone V90I (E7); assay type: cell-based, Escherichia coli; conditions: Table 11
# From the text: as §2
# [9] = biological target: T5, MphR variant T17R (QCMS3D6; SEQ ID NO: 6, 34) (Escherichia coli, UniProt Q9EVJ6, T17R); test: MphR-GFP biosensor dose-response, clone T17R; assay type: cell-based
# T5 construct: E. coli TOP10 GFP biosensor
# From the text: (§3) In Table 1, Hill functions were used to derive biosensor transfer functions. K1/2 is the inducer concentration at half maximal induction. Cooperativity is derived from the Hill function to indicate cooperative ligand binding between protein monomers of the MphR dimer. Dynamic range is the GFP maximal response minus the minimum GFP response, which in all cases was the response with no ligand. The linear range of detection is the linear portion of the dose-response curve with a slope R^2=0.95 or higher.
# [10] = biological target: T6, MphR variant T27G/Q65M (QCMS5B4; SEQ ID NO: 8, 36) (Escherichia coli, UniProt Q9EVJ6, Q65M/T17G); test: MphR-GFP biosensor dose-response, clone T27G/Q65M; assay type: cell-based
# T6 construct: E. coli TOP10 cells with plasmid pJZ12
# From the text: as §3
# [11] = biological target: T7, MphR variant T27A/M59E (QCMS5D7; SEQ ID NO: 9, 37) (Escherichia coli, UniProt Q9EVJ6, M59E/T17A); test: MphR-GFP biosensor dose-response, clone T27A/M59E; assay type: cell-based; conditions: Table 1
# T7 construct: E. coli TOP10 GFP biosensor
# From the text: as §3
# [12] = tested on: MphR variant T27A/M59E (QCMS5D7; SEQ ID NO: 9, 37); test: MphR-GFP biosensor dose-response, clone T27A/M59E; assay type: cell-based, Escherichia coli; conditions: Table 11
# From the text: as §3
# [13] = biological target: T8, wild-type MphR with RBS mutations A1T/G2T/A3C (smRBS1A1, RBS TTCAGGT; SEQ ID NO: 53) (Escherichia coli, UniProt Q9EVJ6); test: MphR-GFP biosensor dose-response, smRBS1A1; assay type: cell-based
# T8 construct: GFP reporter in E. coli
# From the text: as §1
# [14] = biological target: T9, wild-type MphR with mutated RBS CTGAGGT (smRBS1G6) (Escherichia coli, UniProt Q9EVJ6); test: MphR-GFP biosensor dose-response, smRBS1G6; assay type: cell-based; conditions: Table 4
# T9 construct: GFP reporter in E. coli
# From the text: as §1
# [15] = biological target: T10, wild-type MphR with mutated RBS AAAGGTT (smRBS2E1; SEQ ID NO: 55) (Escherichia coli, UniProt Q9EVJ6); test: MphR-GFP biosensor dose-response, smRBS2E1; assay type: cell-based; conditions: Table 4
# T10 construct: GFP reporter in E. coli
# From the text: as §1
# [16] = biological target: T11, wild-type MphR with E7 ribosome binding site mutation only (WT E7-RBS; SEQ ID NO: 32) (Escherichia coli, UniProt Q9EVJ6); test: cell-based
# T11 construct: GFP reporter in E. coli
# From the text: as §1
# To confirm this, new versions of A3 and E7 were constructed that either only included the RBS mutations or the amino acids for each clone.
structure (smiles),measurement,setting,value
"CC[C@H]1OC(=O)[C@H](C)[C@@H](O)[C@H](C)[C@@H](O)[C@@H](C)C[C@@H](C)C(=O)[C@H](C)[C@@H](O)[C@H]1C [Compound 6dEB, 6-deoxyerythronolide B]",activation of GFP expression under control of WT MphR,[1],failed to activate GFP expression
"CC[C@H]1OC(=O)[C@H](C)[C@@H](O)[C@@H](C)C[C@@H](C)C(=O)/C=C/[C@H]1C [Compound 10-DML, 10-deoxymethynolide]",activation of GFP expression under control of WT MphR,[1],neither WT or D3 MphR is activated
same,activation,"[2]; result in words, FIG. 4C",neither WT or D3 MphR is activated
CC[C@H]1OC(=O)[C@H](C)[C@@H](O[C@H]2C[C@@](C)(OC)[C@@H](O)[C@H](C)O2)[C@H](C)[C@@H](O[C@@H]2O[C@H](C)C[C@H](N(C)C)[C@H]2O)[C@](C)(OC)C[C@@H](C)C(=O)/C(C)=C/[C@]1(C)O [Solithromycin biosynthetic intermediate],EC50,"[1]; K1/2, FIG. 20",70.9 µM
same,detects the intermediate at concentrations as low as,[2]; FIG. 20,0.1 µM
same,times more sensitive vs. WT,[2],52 times more
CC[C@H]1OC(=O)[C@H](C)[C@@H](O[C@@H]2O[C@H](C)C[C@H](N(C)C)[C@H]2O)[C@@H](C)C[C@@H](C)C(=O)/C=C/[C@H]1C [YC-17],EC50,"[1]; K1/2, Table 12",19.6 ± 0.6 µM
same,EC50,[2],0.49 ± 0.05 µM
same,times more sensitive vs. WT,[2],40 times more
CC[C@H]1OC(=O)[C@H](C)[C@@H](O[C@H]2C[C@@](C)(OC)[C@@H](O)[C@H](C)O2)[C@H](C)[C@@H](O[C@@H]2O[C@H](C)C[C@H](N(C)C)[C@H]2O)[C@](C)(O)C[C@@H](C)CN(C)[C@H](C)[C@@H](O)[C@]1(C)O [azithromycin],EC50,"[1]; K1/2, Table 6",0.6 ± 0.02 µM
same,EC50,"[1]; K1/2, Table 7",0.6 µM
same,activation,[3],little to no activation
"CC[C@H]1OC(=O)[C@H](C)[C@@H](O[C@H]2C[C@@](C)(OC)[C@@H](O)[C@H](C)O2)[C@H](C)[C@@H](O[C@@H]2O[C@H](C)C[C@H](N(C)C)[C@H]2O)[C@](C)(OC)C[C@@H](C)C(=O)[C@H](C)[C@@H](O)[C@]1(C)O [clarithromycin, 6-O-methylerythromycin]",EC50,[4],12.7 µM
same,EC50,MphR variant R122T,24.2 µM
same,Hill coefficient,MphR variant R122T,3.03
CC[C@H]1OC(=O)[C@H](C)[C@@H](O[C@H]2C[C@@](C)(OC)[C@@H](O)[C@H](C)O2)[C@H](C)[C@@H](O[C@@H]2O[C@H](C)C[C@H](N(C)C)[C@H]2O)[C@](C)(O)C[C@@H](C)C(=O)[C@H](C)[C@@H](O)[C@]1(C)O [erythromycin A],Cooperativity,"[1]; Table 1, derived from the Hill function",4.44 ± 1.52
same,Hillc,[1]; Table 4,3.6 ± 0.3
same,Hill coefficient,[1]; Table 8,3.52
same,Cooperativity,[1]; Table 9,3.39
same,activation of GFP expression under control of WT MphR,[1],good activator
same,Cooperativity,[5],1.80 ± 0.01
same,times more sensitive vs. WT,[6],3.6 times more
same,Cooperativity,[7],2.84 ± 0.42
same,times more sensitive vs. WT,[8],3.0 times more
same,Cooperativity,[9]; Table 1,3.16 ± 0.13
same,times more sensitive vs. WT,[9]; Table 11,2.4 times more
same,Cooperativity,[10]; Table 1,2.92 ± 0.17
same,times more sensitive vs. WT,[10]; Table 11,1.5 times more
same,Cooperativity,[11],2.59 ± 0.04
same,times more sensitive vs. WT,[12],2.0 times more
same,Hillc,[13]; Table 4,1.7 ± 0.1
same,times more sensitive vs. WT,[13]; Table 11,9.9 times more
same,Hillc,[14],5.4 ± 1.2
same,Hillc,[15],3.9 ± 0.5
same,enhanced sensitivity,[4],2 fold
same,Hill coefficient,MphR variant R122T,2.39
CC[C@H]1OC(=O)[C@H](C)[C@@H](O[C@H]2C[C@@](C)(OC)[C@@H](O)[C@H](C)O2)[C@H](C)[C@@H](O[C@@H]2O[C@H](C)C[C@H](N(C)C)[C@H]2O)[C@](C)(O)C[C@@H](C)C(=O)[C@H](C)[C@@H](O)[C@H]1C [erythromycin B],EC50,"[1]; K1/2, Table 9",1.72 µM
same,Cooperativity,[1]; Table 9,1.99
same,activation of GFP expression under control of WT MphR,[1],activate MphR-WT in a nearly identical manner
CC[C@H]1OC(=O)[C@H](C)[C@@H](O[C@H]2C[C@@](C)(O)[C@@H](O)[C@H](C)O2)[C@H](C)[C@@H](O[C@@H]2O[C@H](C)C[C@H](N(C)C)[C@H]2O)[C@](C)(O)C[C@@H](C)C(=O)[C@H](C)[C@@H](O)[C@]1(C)O [erythromycin C],activation of GFP expression under control of WT MphR,[1],activate MphR-WT in a nearly identical manner
CC[C@H]1OC(=O)[C@H](C)C(=O)[C@H](C)[C@@H](O[C@@H]2O[C@H](C)C[C@H](N(C)C)[C@H]2O)[C@@H](C)C[C@@H](C)C(=O)/C=C/[C@H]1C [narbomycin],fold induction at 5 µM,[1]; read-out: Activation ratio (5 uM/0 uM),4
CC[C@H]1OC(=O)[C@H](C)C(=O)[C@H](C)[C@@H](O[C@@H]2O[C@H](C)C[C@H](N(C)C)[C@H]2O)[C@@H](C)C[C@@H](C)C(=O)/C=C/[C@]1(C)O [pikromycin],EC50,"[1]; K1/2, Table 5",97 ± 2 µM
same,EC50,"[1]; K1/2, Table 14",96.6 ± 2.7 µM
same,EC50,[16],50 ± 20 µM
same,EC50,[13],48 ± 5 µM
same,"sensitivity improved, compared to the wild-type MphR",[13],2 fold
same,EC50,[2],0.81 ± 0.02 µM
same,times more sensitive vs. WT,[2],118 times more
CC[C@H]1OC(=O)[C@H](C)[C@@H](O[C@H]2C[C@@](C)(OC)[C@@H](O)[C@H](C)O2)[C@H](C)[C@@H](O[C@@H]2O[C@H](C)C[C@H](N(C)C)[C@H]2O)[C@](C)(O)C[C@@H](C)/C(=N\OCOCCOC)[C@H](C)[C@@H](O)[C@]1(C)O [roxithromycin],EC50,"[1]; K1/2, Table 6",67.2 ± 3.41 µM
same,EC50,"[1]; K1/2, Table 7",74.1 µM
same,activation,[3],little to no activation
